Test results: PubChem BioAssay (NCI)
Several values for one entry are separate records, joined by “and”; a condition that tells them apart may be missing. Equal values may be shown once.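 A five-concentration, 48-hour dose response in 96-well plates underlies each endpoint, interpolated linearly between surrounding concentrations. At the GI50, growth is halved. TGI marks complete inhibition of growth.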

Key:
Experiment in all cases: NCI anticancer screen, dose series, 48 h
MDA-MB-231 breast = tested on: MDA-MB-231 breast
NCI/ADR-RES ovarian = tested on: NCI/ADR-RES ovarian
BT-549 breast = tested on: BT-549 breast
A498 renal = tested on: A498 renal
UACC-62 melanoma = tested on: UACC-62 melanoma
MDA-MB-435 = tested on: MDA-MB-435
SK-MEL-2 melanoma = tested on: SK-MEL-2 melanoma
OVCAR-4 ovarian = tested on: OVCAR-4 ovarian
NCI-H522 lung = tested on: NCI-H522 lung
M14 melanoma = tested on: M14 melanoma

Compound | GI50 (MDA-MB-231 breast) | TGI (MDA-MB-231 breast) | GI50 (NCI/ADR-RES ovarian) | TGI (NCI/ADR-RES ovarian) | GI50 (BT-549 breast) | TGI (BT-549 breast) | GI50 (A498 renal) | TGI (A498 renal) | GI50 (UACC-62 melanoma) | TGI (UACC-62 melanoma) | GI50 (MDA-MB-435) | TGI (MDA-MB-435) | GI50 (SK-MEL-2 melanoma) | TGI (SK-MEL-2 melanoma) | GI50 (OVCAR-4 ovarian) | TGI (OVCAR-4 ovarian) | GI50 (NCI-H522 lung) | TGI (NCI-H522 lung) | GI50 (M14 melanoma) | TGI (M14 melanoma)
COc1c(N2CCN(Cn3c(O)c(N=NC(=O)c4ccncc4)c4cc(F)ccc43)C(C)C2)c(F)cc2c(=O)c(C(=O)O)cn(C3CC3)c12 (stereo unspecified) | 8.31 µM | 27.7 µM | 29 µM | > 50 µM | 37.5 µM | > 50 µM | 13.3 µM | > 50 µM | > 50 µM | > 50 µM | > 50 µM | > 50 µM | > 50 µM | > 50 µM | > 50 µM | > 50 µM | > 50 µM | > 50 µM | 32.9 µM | > 50 µM
CCCCCCNC(=O)Oc1ccc(/C(=C(\C)c2ccccc2)c2ccc(OCCN(CC)CC)cc2)cc1 | 5.08 µM | 11.4 µM | 5.47 µM | 11.9 µM | 6.05 µM | 12.5 µM | 6.93 µM | 13.6 µM | 2.05 µM | 7.4 µM | 3.57 µM | 10.1 µM | 7.5 µM | 14.8 µM | 5.46 µM | 11.9 µM | 3.48 µM | 10.6 µM | 1.11 µM | 2.38 µM
Cc1ccc2c(c1)C(=O)c1c-2n(CCCN=[N+]=[N-])c(=O)c2cc([N+](=O)[O-])ccc12 | 46.9 µM | > 100 µM | 94 µM | > 100 µM | > 100 µM | > 100 µM | > 100 µM | > 100 µM | 30.3 µM | > 100 µM | > 100 µM | > 100 µM | > 100 µM | > 100 µM | 14 µM | 74.2 µM | 25.8 µM | > 100 µM | > 100 µM | > 100 µM
CN1CCN(CCOc2ccc(-c3cnc4c(-c5ccc(F)cc5)cnn4c3)cc2)CC1 | 1.57 µM | 3.07 µM | 2.2 µM | 4.88 µM | 2.68 µM | 9.44 µM | 1.64 µM | 4.89 µM | 1.78 µM | 3.36 µM | 1.73 µM | 3.18 µM | 2.09 µM | 4.31 µM | 1.43 µM | 3.61 µM | 1.87 µM | 3.94 µM | 1.96 µM | 3.7 µM
CCOc1cc(C(C)(C)C)ccc1C1=N[C@@](C)(c2ccc(Cl)cc2)[C@@](C)(c2ccc(Cl)cc2)N1C(=O)N1CCN(CCS(C)(=O)=O)CC1 | 2.31 µM | 7.61 µM | 4.09 µM | 24.4 µM | 3.24 µM | 10 µM | 0.655 µM | 5.27 µM | 0.793 µM | 3 µM | 3.47 µM | 11.7 µM | 5.29 µM | 18.3 µM | 2.68 µM | 38.3 µM | 2.98 µM | 10.2 µM | 3.75 µM | 14.6 µM
CCOC(=O)c1ccccc1-c1c2ccc(=[N+](C)C)cc-2oc2cc(N(C)C)ccc12 | 0.301 µM | 10.7 µM | 27.2 µM | > 100 µM | 0.178 µM | 2.77 µM | 0.013 µM | 1.11 µM | 0.332 µM | 4.12 µM | 0.255 µM | 5.71 µM | 0.579 µM | 4.1 µM | 0.167 µM | > 41.5 µM | 0.306 µM | 16.4 µM | 0.448 µM | 10.9 µM
COc1ccc(NC(=O)/C=C(C)/C=C/C=C(C)\C=C\C2=C(C)CCCC2(C)C)cc1 | 5.21 µM | 59 µM | 60.6 µM | > 100 µM | > 100 µM | > 100 µM | > 100 µM | > 100 µM | 24.6 µM | > 100 µM | 48.2 µM | > 100 µM | 72.4 µM | > 100 µM | 34.8 µM | > 100 µM | 28.2 µM | > 100 µM | > 100 µM | > 100 µM
C=CCCC(=O)N1C=CC(=O)[C@H](O)[C@@H]1/C=C/c1ccccc1 | 18.6 µM | > 32.5 µM | 6.38 µM | > 32.5 µM | 11 µM | > 32.5 µM | > 32.5 µM | > 32.5 µM | 6.27 µM | 15.6 µM | 10.7 µM | > 32.5 µM | > 32.5 µM | > 32.5 µM | 5.67 µM | > 32.5 µM | > 32.5 µM | > 32.5 µM | 5.17 µM | 16.8 µM
Cc1cc(S(=O)(=O)Nc2nc3cc(Cl)ccc3o2)c(SCc2ccccc2)cc1Cl | 24.2 µM | 50.7 µM | 28.5 µM | 66.2 µM | 19.3 µM | 38.7 µM | 18.8 µM | 35.5 µM | 19.2 µM | 41.3 µM | 21.5 µM | 42 µM | 20.5 µM | 43.1 µM | 25.6 µM | 74.7 µM | 17.4 µM | 40.1 µM | 22.1 µM | 43.9 µM
N=C(N)SCCc1ccccn1 | – | > 100 µM | – | > 100 µM | – | > 100 µM | 37.8 µM and > 100 µM | > 100 µM | – | > 100 µM | – | > 100 µM | – | > 100 µM | – | > 100 µM | – | > 100 µM | – | > 100 µM
